Values quoted from earlier work as cited in the PKSmart pharmacokinetics tables (Seal et al. 2025).

Experiment: not given per row; by the article one of three: Lombardo et al. 2013, J Clin Pharmacol 53:178, doi 10.1177/0091270012440282; 'New Drugs at FDA', novel drug approvals for 2021 and 2022 (the article's reference 43); Yap, Li, Chen 2006, J Mol Graph Model 24:383, doi 10.1016
Settings: human; for clearance / Vd / half-life: in vivo; for fraction unbound: plasma

SMILES	clearance	further results
O=C1Nc2ccc(Cl)cc2[C@@](C#CC2CC2)(C(F)(F)F)O1	3.1 mL/min/kg	
C=CC(=O)N1CC[C@H](n2nc(C#Cc3cc(OC)cc(OC)c3)c3c(N)ncnc32)C1	5.56 mL/min/kg	Vd: 1.1 L/kg; half-life: 2.9 h; fraction unbound: 0.05
CNC[C@@H](O)c1cccc(O)c1	29.9 mL/min/kg	
C=c1c(N)c(O)c2c(c1O)N1C[C@@H]3N[C@@H]3[C@@]1(OC)C=2COC(N)=O	8.23 mL/min/kg	
CC(C)Oc1ccc(-c2nn([C@@H](C)c3oc4ccc(F)cc4c(=O)c3-c3cccc(F)c3)c3ncnc(N)c23)cc1F	4.31 mL/min/kg	Vd: 5.2 L/kg; half-life: 91 h; fraction unbound: 0.01
CC(C)(Oc1ccc(CCNC(=O)c2ccc(Cl)cc2)cc1)C(=O)O	1.67 mL/min/kg	
Nc1ccn(C[C@H](CO)OCP(=O)(O)O)c(=O)n1	2.3 mL/min/kg	
CCc1ccc(CCOc2ccc(Cc3sc(=O)[nH]c3O)cc2)nc1	1.43 mL/min/kg	
CCN1C[C@@H](CCN2CCOCC2)C(c2ccccc2)(c2ccccc2)C1=O	5.75 mL/min/kg	
CSc1ccc(OCc2ncc([N+](=O)[O-])n2C)cc1		fraction unbound: 0.02
CC(=O)Oc1cc(C(F)(F)F)ccc1C(=O)O	10.7 mL/min/kg	
C=CC[C@]1([C@H](C)C#CCC)C(=O)NC(=O)N(C)C1=O	13.3 mL/min/kg	
CC[C@H](CO)NCCN[C@@H](CC)CO	8.05 mL/min/kg	
CC(C)(ON=C(C(=O)CC1C(=O)N2C(C(=O)O)=C(C[n+]3ccccc3)CS[C@H]12)c1csc(N)n1)C(=O)[O-] (stereo partly specified)	1.88 mL/min/kg	
C[C@@H]1[C@H](c2c(F)ccc(F)c2F)CC(NC(=O)c2cnc3c(c2)C[C@@]2(C3)C(=O)Nc3ncccc32)C(=O)N1CC(F)(F)F (stereo partly specified)	5.28 mL/min/kg	Vd: 4.87 L/kg; half-life: 11 h; fraction unbound: 0.05
Cc1cn([C@@H]2C=C[C@H](CO)O2)c(=O)[nH]c1=O	8.24 mL/min/kg	
O=C(NC(C(=O)NC1C(=O)N2C(C(=O)O)C(=C[n+]3ccc(CCS(=O)(=O)[O-])cc3)CSC12)c1ccccc1)c1nc[nH]c1C(=O)O (stereo unspecified)	1.7 mL/min/kg	Vd: 0.21 L/kg
CN[C@H]1CC[C@H](c2ccc(Cl)c(Cl)c2)c2ccccc21	38 mL/min/kg	
Nc1nc(NC2CC2)c2ncn([C@@H]3C=C[C@H](CO)C3)c2n1	13.1 mL/min/kg	
C=CCN1CCc2nc(N)sc2CC1	7.38 mL/min/kg	
Cc1ccc2nc(N)[nH]c(=O)c2c1Sc1ccncc1	2.36 mL/min/kg	
NC(C(=O)NC1C(=O)N2C(C(=O)O)=C(Cl)CS[C@H]12)c1ccccc1 (stereo partly specified)	6.1 mL/min/kg	
Cc1ccc(NC(=O)C2CCCN(C(=O)c3c(C)cccc3F)[C@H]2c2ccc(NC3CCCC3)cc2)cc1C(F)(F)F (stereo partly specified)	4.53 mL/min/kg	Vd: 5.75 L/kg; half-life: 97.6 h; fraction unbound: 0.01
COc1ccccc1OCCNC[C@@H](O)COc1cccc2[nH]c3ccccc3c12	8.7 mL/min/kg	
Cc1cc(C=CC#N)cc(C)c1Nc1ccnc(Nc2ccc(C#N)cc2)n1		Vd: 2.71 L/kg; half-life: 44.5 h; fraction unbound: 0.3

SMILES	clearance	further results
C[C@H](NCCC(c1ccccc1)c1ccccc1)c1ccccc1	20 mL/min/kg	
COP(=O)(OC)[C@H](O)C(Cl)(Cl)Cl	5.67 mL/min/kg	
Cc1nc2ccc(CN(C)c3ccc(C(=O)NC(CCC(=O)O)C(=O)O)s3)cc2c(=O)[nH]1 (stereo unspecified)	0.59 mL/min/kg	
CN1C(=O)NC(=O)[C@@](C)(C2=CCCCC2)C1=O	3.6 mL/min/kg	
NC(=O)c1ncn([C@H]2O[C@H](CO)[C@@H](O)[C@@H]2O)c1N	41.7 mL/min/kg	
CN1CCN(c2ccc(Nc3ncc4cc5n(c4n3)C3(CCCCC3)CNC5=O)nc2)CC1	41.7 mL/min/kg	Vd: 18.8 L/kg; half-life: 14 h
C[C@H](CN1CC(=O)NC(=O)C1)N1CC(=O)NC(=O)C1	4.42 mL/min/kg	
CC/C(=C(/c1ccccc1)c1ccc(OCCN(C)C)cc1)c1ccccc1	1.4 mL/min/kg	
CC(C)NC[C@@H](O)COc1cccc2ccccc12	13.7 mL/min/kg	
CCNC[C@H](O)c1ccc(O)cc1	13.6 mL/min/kg	
C[C@@](Cc1ccc(O)c(O)c1)(NN)C(=O)O	18 mL/min/kg	
COc1ccc(NC(=O)\C=C(C)/C=C/C=C(C)\C=C\C2=C(C)CCCC2(C)C)cc1	98.9 mL/min/kg	
CCOC(=O)NNc1ccc(N(CC)C[C@@H](C)O)nn1	3.79 mL/min/kg	
COc1ccnc(C[S@@+](O)c2nc3cc(OC(F)F)ccc3[n-]2)c1OC	2.57 mL/min/kg	
C=C1C[C@@H]2C(CC[C@]3(C)C(=O)CC[C@@H]23)[C@]2(C)C=CC(=O)C=C12 (stereo partly specified)	145 mL/min/kg	
Cc1ncc([N+](=O)[O-])n1C[C@@H](C)O	0.4 mL/min/kg	
Cc1ccc(-c2cc(C(F)(F)F)nn2-c2ccc(S(N)(=O)=O)cc2)cc1	7.59 mL/min/kg	
CC(C)(C)NC[C@@H](O)c1cc(O)cc(O)c1	4 mL/min/kg	
COc1ccc2c3c1OC1C(=O)CC[C@@H]4[C@H](C2)N(C)CC[C@@]314 (stereo partly specified)	8.82 mL/min/kg	
CC(=O)O[C@H](CC(=O)[O-])C[N+](C)(C)C	1.45 mL/min/kg	
CN1CCN(/C=C2/N=C3CN=C(c4ccccc4Cl)c4cc([N+](=O)[O-])ccc4N3C2=O)CC1	5.09 mL/min/kg	
NS(=O)(=O)c1cc(-c2nn[nH]n2)c(NCc2cccs2)cc1Cl	1.29 mL/min/kg	
O=C1CC2(CCCC2)CC(=O)N1CCCCN1CCN(c2ncccn2)CC1	28.3 mL/min/kg	
C[C@H]1CN(c2cc3c(cc2F)c(=O)c(C(=O)O)cn3-c2ccc(F)cc2F)CCN1	3.19 mL/min/kg	
